{"source": "patent US20030073625A1", "about": "“Methods of preventing ventilator associated pneumonia by oral administration of antimicrobial IB-367 peptides” (priority 2001, published 2003)", "key": {"bacteria": {"tested_on": "bacteria", "details": "repeated subcultures at one-half MIC; Steinberg et al., 1997; cited from earlier work"}, "[1]": {"tested_on": "polymicrobial flora of the oral cavity", "experiment": "Microbicidal activity in human saliva", "format": "cell-based"}}, "note": "Where no end group is shown, it is not given here."}
{"substance": "PG-1: protegrin peptide PG-1 (RGGRLCYCRRRFCVCVGR; ends and bridges not checked; cysteine pairing not given here; UniProt P32194 131-148, looked up)", "values": [{"measurement": "development of resistance", "setting": "bacteria", "result": "did not result in the development of resistance"}]}
{"substance": "RGGLCYCRGRFCVCVGR [native IB-367]", "values": [{"measurement": "microbicidal activity in human saliva", "setting": "[1]", "result": "retains its microbicidal activity"}]}
